Biological target: T1, human RORgT (Homo sapiens, UniProt P51449)
T1 construct: expressed in transfected cells
T1 sequence (P51449 267-516): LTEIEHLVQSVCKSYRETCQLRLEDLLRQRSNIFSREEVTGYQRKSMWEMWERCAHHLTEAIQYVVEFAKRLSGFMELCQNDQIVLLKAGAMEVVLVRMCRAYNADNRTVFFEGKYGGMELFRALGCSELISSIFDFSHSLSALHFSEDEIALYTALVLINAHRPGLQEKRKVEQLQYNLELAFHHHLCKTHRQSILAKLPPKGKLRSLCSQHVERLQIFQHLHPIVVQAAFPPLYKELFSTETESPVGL
Test: RORgT Gal4 Luciferase Reporter Gene Assay
Type: cell-based
Conditions: engineered Jurkat cells overexpressing RORgT (LBD or full length) fused with Gal4 Luc reporter; 18 hours at 37° C.; luminescence
Outline: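 Jurkat cells expressing Gal4 Luc with either RORgT LBD (aa267-516) or full-length human RORgT, 10,000 cells/well, treated with compound (40 µM to 0.67 nM final, 3-fold dilutions) for 18 h at 37° C. Steady-Glo luminescence read; inhibition of constitutive activity as % signal-window reduction relative to a control compound.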

| SMILES | EC50 |
| --- | --- |
| COC(=O)[C@H]1CC[C@H](C(=O)N2CC[C@@]3(S(=O)(=O)c4ccc(F)cc4)c4ccc(OCc5cc(F)ccc5Cl)cc4CC[C@@H]23)CC1 [Example 176, methyl (1r,4r)-4-[(3aR,9bR)-7-[(2-chloro-5-fluorophenyl)methoxy]-9b-(4-fluorobenzenesulfonyl)-1H,2H,3H,3aH,4H,5H,9bH-benzo[e]indole-3-carbonyl]cyclohexane-1-carboxylate] | 56 nM |
| COC(=O)[C@H]1CC[C@H](C(=O)N2CC[C@@]3(S(=O)(=O)c4ccc(F)cc4)c4ccc(OCc5c(F)cccc5C(F)(F)F)cc4CC[C@@H]23)CC1 [Example 183, methyl (1r,4r)-4-[(3aR,9bR)-7-{[2-fluoro-6-(trifluoromethyl)phenyl]methoxy}-9b-(4-fluorobenzenesulfonyl)-1H,2H,3H,3aH,4H,5H,9bH-benzo[e]indole-3-carbonyl]cyclohexane-1-carboxylate] | 48 nM |
| CN1CCC(C(=O)N2CC[C@@]3(S(=O)(=O)c4ccc(F)cc4)c4ccc(OCc5c(F)cccc5C(F)(F)F)cc4CC[C@@H]23)CC1 [Example 184, 4-[(3aR,9bR)-7-{[2-fluoro-6-(trifluoromethyl)phenyl]methoxy}-9b-(4-fluorobenzenesulfonyl)-1H,2H,3H,3aH,4H,5H,9bH-benzo[e]indole-3-carbonyl]-1-methylpiperidine] | 68 nM |
| NS(=O)(=O)CC(=O)N1CC[C@@]2(S(=O)(=O)c3ccc(F)cc3)c3ccc(OCc4c(F)cccc4C(F)(F)F)cc3CC[C@@H]12 [Example 185, 2-[(3aR,9bR)-7-{[2-fluoro-6-(trifluoromethyl)phenyl]methoxy}-9b-(4-fluorobenzenesulfonyl)-1H,2H,3H,3aH,4H,5H,9bH-benzo[e]indol-3-yl]-2-oxoethane-1-sulfonamide] | 90 nM |
| CS(=O)(=O)CC(=O)N1CC[C@@]2(S(=O)(=O)c3ccc(F)cc3)c3ccc(OCc4c(F)cccc4C(F)(F)F)cc3CC[C@@H]12 [Example 188, 1-[(3aR,9bR)-7-{[2-fluoro-6-(trifluoromethyl)phenyl]methoxy}-9b-(4-fluorobenzenesulfonyl)-1H,2H,3H,3aH,4H,5H,9bH-benzo[e]indol-3-yl]-2-methanesulfonylethan-1-one] | 75 nM |
| CS(=O)(=O)CC(=O)N1CC[C@@]2(S(=O)(=O)c3ccc(F)cc3)c3ccc(OCc4c(Cl)cccc4Cl)cc3CC[C@@H]12 [Example 191, 1-[(3 aR,9bR)-7-[(2,6-dichlorophenyl)methoxy] -9b-(4-fluorobenzenesulfonyl)-1H,2H,3H,3aH,4H,5H,9bH-benzo[e]indol-3-yl]-2-methanesulfonylethan-1-one] | 134 nM |
| O=C(O)[C@H]1CC[C@H](C(=O)N2CC[C@@]3(S(=O)(=O)c4ccc(F)cc4)c4ccc(OCc5ccc(F)cc5Cl)cc4CC[C@@H]23)CC1 [Example 193, (1r,4r)-4-[(3aR,9bR)-7-[(2-chloro-4-fluorophenyl)methoxy]-9b-(4-fluorobenzenesulfonyl)-1H,2H,3H,3aH,4H,5H,9bH-benzo[e]indole-3-carbonyl]cyclohexane-1-carboxylic acid] | 46 nM |
| NS(=O)(=O)CC(=O)N1CC[C@@]2(S(=O)(=O)c3ccc(F)cc3)c3ccc(OCc4cc(F)ccc4Cl)cc3CC[C@@H]12 [Example 194, 2-[(3aR,9bR)-7-[(2-chloro-5-fluorophenyl)methoxy]-9b-(4-fluorobenzenesulfonyl)-1H,2H,3H,3aH,4H,5H,9bH-benzo[e]indol-3-yl]-2-oxoethane-1-sulfonamide] | 189 nM |
| CS(=O)(=O)CC(=O)N1CC[C@@]2(S(=O)(=O)c3ccc(F)cc3)c3ccc(OCc4cc(F)ccc4Cl)cc3CC[C@@H]12 [Example 195, 1-[(3 aR,9bR)-7-[(2-chloro-5-fluorophenyl)methoxy]-9b-(4-fluorobenzenesulfonyl)-1H,2H,3H,3aH,4H,5H,9bH-benzo[e]indol-3-yl]-2-methanesulfonylethan-1-one] | 158 nM |

Stronger by EC50, values ahead:

| EC50 | SMILES |
| --- | --- |
| 41 nM | CC(=O)N1CCC(C(=O)N2CC[C@@]3(S(=O)(=O)c4ccc(F)cc4)c4ccc(OCc5c(Cl)cccc5Cl)cc4CC[C@@H]23)CC1 [Example 189, 1-{4-[(3aR,9bR)-7-[(2,6-dichlorophenyl)methoxy] -9b-(4-fluorobenzenesulfonyl)-1H,2H,3H,3aH,4H,5H,9bH-benzo[e]indole-3-carbonyl]piperidin-1-yl}ethan-1-one] |
| 26 nM | CC(=O)N1CCC(C(=O)N2CC[C@@]3(S(=O)(=O)c4ccc(F)cc4)c4ccc(OCc5cc(F)ccc5Cl)cc4CC[C@@H]23)CC1 [Example 174, 1-{4-[(3aR,9bR)-7-[(2-chloro-5-fluorophenyl)methoxy]-9b-(4-fluorobenzenesulfonyl)-1H,2H,3H,3aH,4H,5H,9bH-benzo[e]indole-3-carbonyl]piperidin-1-yl}ethan-1-one] |
| 21 nM | O=C(CN1CCS(=O)(=O)CC1)N1CC[C@@]2(S(=O)(=O)c3ccc(F)cc3)c3ccc(OCc4cc(F)ccc4Cl)cc3CC[C@@H]12 [Example 180, 4-{2-[(3aR,9bR)-7-[(2-chloro-5-fluorophenyl)methoxy]-9b-(4-fluorobenzenesulfonyl)-1H,2H,3H,3aH,4H,5H,9bH-benzo[e]indol-3-yl]-2-oxoethyl}-1λ^6-thiomorpholine-1,1-dione] |
| 19 nM | NC(=O)N1CCC(C(=O)N2CC[C@@]3(S(=O)(=O)c4ccc(F)cc4)c4ccc(OCc5c(Cl)cccc5Cl)cc4CC[C@@H]23)CC1 [Example 172, 4-[(3aR,9bR)-7-[(2,6-dichlorophenyl)methoxy]-9b-(4-fluorobenzenesulfonyl)-1H,2H,3H,3aH,4H,5H,9bH-benzo[e]indole-3-carbonyl]piperidine-1-carboxamide] |
| 18 nM | CS(=O)(=O)N1CCC(C(=O)N2CC[C@@]3(S(=O)(=O)c4ccc(F)cc4)c4ccc(OCc5cc(F)ccc5Cl)cc4CC[C@@H]23)CC1 [Example 177, 4-[(3aR,9bR)-7-[(2-chloro-5-fluorophenyl)methoxy]-9b-(4-fluorobenzenesulfonyl)-1H,2H,3H,3aH,4H,5H,9bH-benzo[e]indole-3-carbonyl]-1-methanesulfonylpiperidine] |
| 16 nM | CC(=O)N1CCC(C(=O)N2CC[C@@]3(S(=O)(=O)c4ccc(F)cc4)c4ccc(OCc5c(F)cccc5C(F)(F)F)cc4CC[C@@H]23)CC1 [Example 182, 1-{4-[(3aR,9bR)-7-{[2-fluoro-6-(trifluoromethyl)phenyl]methoxy}-9b-(4-fluorobenzenesulfonyl)-1H,2H,3H,3aH,4H,5H,9bH-benzo[e]indole-3-carbonyl]piperidin-1-yl}ethan-1-one] |
| 14 nM | O=C(CN1CCS(=O)(=O)CC1)N1CC[C@@]2(S(=O)(=O)c3ccc(F)cc3)c3ccc(OCc4c(Cl)cccc4Cl)cc3CC[C@@H]12 [Example 173, 4-{2-[(3aR,9bR)-7-[(2,6-dichlorophenyl)methoxy]-9b-(4-fluorobenzenesulfonyl)-1H,2H,3H,3aH,4H,5H,9bH-benzo[e]indol-3-yl]-2-oxoethyl}-1λ^6-thiomorpholine-1,1-dione] |
| 12 nM | O=C(C1CCS(=O)(=O)C1)N1CC[C@@]2(S(=O)(=O)c3ccc(F)cc3)c3ccc(OCc4cc(F)ccc4Cl)cc3CC[C@@H]12 (stereo partly drawn) [Example 178, 3-[(3aR,9bR)-7-[(2-chloro-5-fluorophenyl)methoxy]-9b-(4-fluorobenzenesulfonyl)-1H,2H,3H,3aH,4H,5H,9bH-benzo[e]indole-3-carbonyl]-1λ^6-thiolane-1,1-dione] |
| 12 nM | NC(=O)N1CCC(C(=O)N2CC[C@@]3(S(=O)(=O)c4ccc(F)cc4)c4ccc(OCc5cc(F)ccc5Cl)cc4CC[C@@H]23)CC1 [Example 179, 4-[(3aR,9bR)-7-[(2-chloro-5-fluorophenyl)methoxy]-9b-(4-fluorobenzenesulfonyl)-1H,2H,3H,3aH,4H,5H,9bH-benzo[e]indole-3-carbonyl]piperidine-1-carboxamide] |
| 10 nM | O=C(C1CCS(=O)(=O)C1)N1CC[C@@]2(S(=O)(=O)c3ccc(F)cc3)c3ccc(OCc4c(F)cccc4C(F)(F)F)cc3CC[C@@H]12 (stereo partly drawn) [Example 187, 3-[(3aR,9bR)-7-{[2-fluoro-6-(trifluoromethyl)phenyl]methoxy}-9b-(4-fluorobenzenesulfonyl)-1H,2H,3H,3aH,4H,5H,9bH-benzo[e]indole-3-carbonyl]-1λ^6-thiolane-1,1-dione] |
| 9.5 nM | O=C(O)[C@H]1CC[C@H](C(=O)N2CC[C@@]3(S(=O)(=O)c4ccc(F)cc4)c4ccc(OCc5cc(F)ccc5Cl)cc4CC[C@@H]23)CC1 [Example 175, (1r,4r)-4-[(3aR,9bR)-7-[(2-chloro-5-fluorophenyl)methoxy]-9b-(4-fluorobenzenesulfonyl)-1H,2H,3H,3aH,4H,5H,9bH-benzo[e]indole-3-carbonyl]cyclohexane-1-carboxylic acid] |
| 8.8 nM | O=C(C1CCS(=O)(=O)CC1)N1CC[C@@]2(S(=O)(=O)c3ccc(F)cc3)c3ccc(OCc4cc(F)ccc4Cl)cc3CC[C@@H]12 [Example 181, 4-[(3aR,9bR)-7-[(2-chloro-5-fluorophenyl)methoxy]-9b-(4-fluorobenzenesulfonyl)-1H,2H,3H,3aH,4H,5H,9bH-benzo[e]indole-3-carbonyl]-1λ^6-thiane-1,1-dione] |
| 8.7 nM | CS(=O)(=O)N1CCC(C(=O)N2CC[C@@]3(S(=O)(=O)c4ccc(F)cc4)c4ccc(OCc5c(Cl)cccc5Cl)cc4CC[C@@H]23)CC1 [Example 190, 4-[(3aR,9bR)-7-[(2,6-dichlorophenyl)methoxy]-9b-(4-fluorobenzenesulfonyl)-1H,2H,3H,3aH,4H,5H,9bH-benzo[e]indole-3-carbonyl]-1-methanesulfonylpiperidine] |

Reference: patent US20230295087A1, “AGONISTS OF ROR GAMMAt” (BRISTOL-MYERS SQUIBB COMPANY, priority 2019, published 2023)
